ChEMBL document CHEMBL1201862, “PubChem BioAssay data set” (2004)
Blank lines part the entries; values can stand above or below the compound they belong to. The source made the active and inactive calls.

Tests used:
[1] = non-specific 3'UTR reporter inhibition in Clone20-Shn3RL – cell-based, Renilla luciferase, cherry-picked, counter-screen for Shn3 inhibitor project, dose response (AID 624133); format: functional
[2] = reduction of Shn3 3'UTR-driven luciferase in osteoblasts – cell-based, Clone20 osteoblasts, firefly luciferase, cherry-picked, dose response (AID 624132); format: functional;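 also: firefly luciferase luminescence from reporter carrying the Shn3 3'UTR in osteoblasts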
[3] = loss of viability in HepG2 cells – cell-based, CellTiter-Glo, cherry-picked, cytotoxicity control for Shn3 inhibitor project, dose response (AID 624134); format: functional
[4] = test system: CHO; assay: CHO cell viability loss, potency – luminescence, cytotoxicity control for TLR9-MyD88 binding inhibitor project, dose response (AID 588339); format: functional, cell-based, hamster; settings: Cricetulus griseus;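 also: CHO cells stably coexpressing TLR9 and MyD88 fusions from primary screen; compound exposure lasted 48 hours before viability readout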
[5] = general cell-killing toxicity readout – plate reader, dry powder samples, cytotoxicity control for PAX8 inhibitor project, dose response (AID 743021); format: functional, cell-based
[6] = molecular target: Paired box protein Pax-8 (Homo sapiens, UniProt Q06710); assay: PAX8 transcriptional activity inhibition in RMG-I – RMG-I cells, luciferase, cherry-pick, dose response (AID 687027); format: functional, cell-based;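 also: luciferase reporter driven by Pax8 target thyroperoxidase promoter measured by SteadyGlo luminescence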
Chain of Paired box protein Pax-8 (Q06710 whole entry): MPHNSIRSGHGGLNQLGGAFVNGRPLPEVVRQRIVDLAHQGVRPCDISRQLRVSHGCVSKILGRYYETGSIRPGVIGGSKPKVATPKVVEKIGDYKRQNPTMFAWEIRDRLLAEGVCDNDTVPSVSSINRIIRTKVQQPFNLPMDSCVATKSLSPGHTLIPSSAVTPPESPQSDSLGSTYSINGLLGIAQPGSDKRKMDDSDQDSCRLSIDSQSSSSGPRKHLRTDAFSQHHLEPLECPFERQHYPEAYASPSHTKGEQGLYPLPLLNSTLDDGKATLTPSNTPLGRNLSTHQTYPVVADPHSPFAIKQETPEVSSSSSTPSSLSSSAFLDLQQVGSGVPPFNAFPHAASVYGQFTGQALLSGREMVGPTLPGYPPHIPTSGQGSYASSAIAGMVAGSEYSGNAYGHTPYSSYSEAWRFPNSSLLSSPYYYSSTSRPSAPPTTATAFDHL

[7] = molecular target: T1, Microphthalmia-associated transcription factor (Homo sapiens, UniProt O75030); assay: reducers of TRPM1 reporter luminescence, concentration series – cell-based, SK-MEL-5, cherry-picked, set 3, MITF inhibitor project, dose response (AID 493073); format: functional;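 also: SK-MEL-5 melanoma cells with luciferase driven by the MITF target TRPM1 promoter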
T1 sequence (O75030 whole entry): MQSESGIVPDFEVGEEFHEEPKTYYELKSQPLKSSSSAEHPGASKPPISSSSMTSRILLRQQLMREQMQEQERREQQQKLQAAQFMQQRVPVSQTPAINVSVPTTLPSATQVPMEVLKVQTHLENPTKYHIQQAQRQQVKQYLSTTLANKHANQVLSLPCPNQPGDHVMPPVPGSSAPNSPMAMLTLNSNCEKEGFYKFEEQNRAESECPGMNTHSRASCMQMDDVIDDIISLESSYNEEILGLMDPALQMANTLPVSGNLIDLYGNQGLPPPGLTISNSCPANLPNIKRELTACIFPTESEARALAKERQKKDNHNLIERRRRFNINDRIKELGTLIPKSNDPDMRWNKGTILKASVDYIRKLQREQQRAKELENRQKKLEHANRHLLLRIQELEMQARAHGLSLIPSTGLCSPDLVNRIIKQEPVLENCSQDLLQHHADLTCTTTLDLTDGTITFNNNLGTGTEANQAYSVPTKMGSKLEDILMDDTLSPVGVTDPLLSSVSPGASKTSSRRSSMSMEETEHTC

[8] = molecular target: T2, Voltage-gated N-type calcium channel alpha-1B subunit/Amyloid beta A4 precursor protein-binding family A member 1 (Homo sapiens, UniProt Q00975+Q02410); format: protein assay
T2 sequence (Q00975 whole entry): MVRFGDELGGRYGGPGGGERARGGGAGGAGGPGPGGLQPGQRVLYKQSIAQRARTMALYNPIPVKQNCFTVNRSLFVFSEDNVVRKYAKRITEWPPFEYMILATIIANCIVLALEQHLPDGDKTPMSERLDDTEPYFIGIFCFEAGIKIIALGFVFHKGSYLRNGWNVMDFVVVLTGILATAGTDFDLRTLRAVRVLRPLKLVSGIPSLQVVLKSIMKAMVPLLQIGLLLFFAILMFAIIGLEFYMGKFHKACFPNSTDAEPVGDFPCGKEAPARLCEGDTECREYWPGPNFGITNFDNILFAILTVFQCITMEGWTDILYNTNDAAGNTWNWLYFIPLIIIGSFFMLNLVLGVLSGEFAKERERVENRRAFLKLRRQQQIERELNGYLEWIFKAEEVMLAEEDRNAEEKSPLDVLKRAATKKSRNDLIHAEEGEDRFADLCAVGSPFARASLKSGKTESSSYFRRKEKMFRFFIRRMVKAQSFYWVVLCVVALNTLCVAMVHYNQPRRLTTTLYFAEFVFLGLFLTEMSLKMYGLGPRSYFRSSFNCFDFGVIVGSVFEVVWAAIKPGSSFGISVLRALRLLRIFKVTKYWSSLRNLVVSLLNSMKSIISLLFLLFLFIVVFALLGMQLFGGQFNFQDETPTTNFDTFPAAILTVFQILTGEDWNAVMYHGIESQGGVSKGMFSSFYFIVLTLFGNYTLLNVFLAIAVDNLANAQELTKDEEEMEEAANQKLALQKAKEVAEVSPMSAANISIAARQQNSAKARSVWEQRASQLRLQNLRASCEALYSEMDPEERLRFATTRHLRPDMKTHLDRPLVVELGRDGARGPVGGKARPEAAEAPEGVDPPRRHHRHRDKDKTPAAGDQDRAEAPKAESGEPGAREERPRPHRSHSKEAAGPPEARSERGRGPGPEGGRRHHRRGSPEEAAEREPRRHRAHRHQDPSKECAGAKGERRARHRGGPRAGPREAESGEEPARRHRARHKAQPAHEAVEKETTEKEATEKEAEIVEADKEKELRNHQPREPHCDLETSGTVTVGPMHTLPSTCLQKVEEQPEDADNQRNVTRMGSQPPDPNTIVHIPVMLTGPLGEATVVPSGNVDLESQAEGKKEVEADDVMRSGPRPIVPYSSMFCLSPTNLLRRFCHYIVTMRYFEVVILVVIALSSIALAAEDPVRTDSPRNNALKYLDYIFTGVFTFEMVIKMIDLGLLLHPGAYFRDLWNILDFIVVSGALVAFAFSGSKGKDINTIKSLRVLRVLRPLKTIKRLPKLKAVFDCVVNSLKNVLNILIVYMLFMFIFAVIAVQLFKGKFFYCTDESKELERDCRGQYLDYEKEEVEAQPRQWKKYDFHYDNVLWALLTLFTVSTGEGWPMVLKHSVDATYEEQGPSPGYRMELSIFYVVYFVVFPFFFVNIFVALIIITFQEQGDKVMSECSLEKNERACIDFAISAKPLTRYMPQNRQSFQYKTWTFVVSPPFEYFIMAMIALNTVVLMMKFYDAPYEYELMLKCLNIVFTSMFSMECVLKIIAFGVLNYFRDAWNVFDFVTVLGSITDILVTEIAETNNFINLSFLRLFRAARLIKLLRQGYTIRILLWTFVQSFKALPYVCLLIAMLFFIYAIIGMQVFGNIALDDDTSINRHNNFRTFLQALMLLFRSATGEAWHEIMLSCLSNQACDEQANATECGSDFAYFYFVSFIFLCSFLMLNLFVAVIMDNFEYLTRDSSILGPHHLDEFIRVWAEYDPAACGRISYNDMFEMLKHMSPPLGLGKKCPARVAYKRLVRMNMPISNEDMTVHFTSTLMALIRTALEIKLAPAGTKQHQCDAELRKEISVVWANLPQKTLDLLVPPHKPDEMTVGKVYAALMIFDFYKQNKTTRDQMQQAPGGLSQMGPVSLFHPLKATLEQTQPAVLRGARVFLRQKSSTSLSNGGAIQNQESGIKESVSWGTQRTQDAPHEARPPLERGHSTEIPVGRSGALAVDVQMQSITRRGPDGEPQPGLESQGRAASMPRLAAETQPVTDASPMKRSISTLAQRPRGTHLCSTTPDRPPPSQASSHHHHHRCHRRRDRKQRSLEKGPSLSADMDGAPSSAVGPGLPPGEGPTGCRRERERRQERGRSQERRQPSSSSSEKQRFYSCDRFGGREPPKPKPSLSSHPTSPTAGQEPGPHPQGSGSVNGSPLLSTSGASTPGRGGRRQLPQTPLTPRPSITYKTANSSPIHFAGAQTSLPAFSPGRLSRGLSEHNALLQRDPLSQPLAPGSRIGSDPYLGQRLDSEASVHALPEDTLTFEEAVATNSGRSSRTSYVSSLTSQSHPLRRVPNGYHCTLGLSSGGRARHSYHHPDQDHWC
T2 sequence (Q02410 whole entry): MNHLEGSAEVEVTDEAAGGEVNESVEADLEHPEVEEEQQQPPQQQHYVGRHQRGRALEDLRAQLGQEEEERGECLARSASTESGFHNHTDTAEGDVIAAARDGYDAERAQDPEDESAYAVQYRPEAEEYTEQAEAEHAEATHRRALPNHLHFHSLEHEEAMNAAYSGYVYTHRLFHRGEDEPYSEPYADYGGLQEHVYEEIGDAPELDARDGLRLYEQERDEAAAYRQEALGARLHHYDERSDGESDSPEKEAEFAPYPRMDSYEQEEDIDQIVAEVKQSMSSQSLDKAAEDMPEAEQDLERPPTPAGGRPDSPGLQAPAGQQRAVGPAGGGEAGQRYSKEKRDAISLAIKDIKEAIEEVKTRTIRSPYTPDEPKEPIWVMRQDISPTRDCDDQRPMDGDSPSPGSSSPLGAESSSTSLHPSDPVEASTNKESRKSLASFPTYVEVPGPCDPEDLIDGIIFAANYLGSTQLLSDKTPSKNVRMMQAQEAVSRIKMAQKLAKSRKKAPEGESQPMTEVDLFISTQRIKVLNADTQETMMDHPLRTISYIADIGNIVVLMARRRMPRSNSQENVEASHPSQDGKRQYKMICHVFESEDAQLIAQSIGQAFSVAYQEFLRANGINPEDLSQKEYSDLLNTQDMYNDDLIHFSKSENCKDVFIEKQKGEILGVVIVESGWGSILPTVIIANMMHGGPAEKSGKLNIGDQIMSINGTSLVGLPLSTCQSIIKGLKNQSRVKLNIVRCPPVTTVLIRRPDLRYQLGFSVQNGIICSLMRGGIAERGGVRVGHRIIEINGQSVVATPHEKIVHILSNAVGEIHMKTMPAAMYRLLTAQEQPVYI

[9] = molecular target: T2, Voltage-gated N-type calcium channel alpha-1B subunit/Amyloid beta A4 precursor protein-binding family A member 1; format: protein assay; remark: listed apart in the source
[10] = test system: Escherichia coli; assay: microbe, parasite or virus in culture
[11] = molecular target: Heat shock protein HSP 90-alpha (Homo sapiens, UniProt P07900); format: functional, organism-based
[12] = molecular target: Glyceraldehyde-3-phosphate dehydrogenase (Homo sapiens, UniProt P04406)
Chain of Glyceraldehyde-3-phosphate dehydrogenase (P04406 whole entry): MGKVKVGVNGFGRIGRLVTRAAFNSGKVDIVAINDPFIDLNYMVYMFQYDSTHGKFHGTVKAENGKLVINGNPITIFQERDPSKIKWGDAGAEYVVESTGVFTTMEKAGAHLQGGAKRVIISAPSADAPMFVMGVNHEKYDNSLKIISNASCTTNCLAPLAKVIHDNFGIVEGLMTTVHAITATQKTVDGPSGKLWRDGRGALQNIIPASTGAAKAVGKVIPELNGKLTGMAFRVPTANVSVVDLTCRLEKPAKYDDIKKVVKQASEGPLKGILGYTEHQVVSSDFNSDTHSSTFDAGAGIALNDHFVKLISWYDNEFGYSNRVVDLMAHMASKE

[13] = molecular target: T3, Tyrosine-protein phosphatase non-receptor type 7 (Homo sapiens, UniProt P35236); format: functional
T3 sequence (P35236 whole entry): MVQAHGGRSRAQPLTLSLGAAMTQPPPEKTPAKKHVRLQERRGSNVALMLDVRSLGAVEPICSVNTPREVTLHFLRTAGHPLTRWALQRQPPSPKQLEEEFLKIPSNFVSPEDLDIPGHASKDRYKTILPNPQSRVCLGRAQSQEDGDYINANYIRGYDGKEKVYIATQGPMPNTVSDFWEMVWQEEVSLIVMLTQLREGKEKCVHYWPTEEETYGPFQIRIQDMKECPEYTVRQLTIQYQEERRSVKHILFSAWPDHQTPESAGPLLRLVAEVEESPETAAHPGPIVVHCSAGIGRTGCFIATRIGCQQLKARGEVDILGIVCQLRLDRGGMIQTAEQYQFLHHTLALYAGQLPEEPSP

[14] = molecular target: T4, Dual specificity protein phosphatase 6 (Rattus norvegicus, UniProt Q64346)
T4 sequence (Q64346 whole entry): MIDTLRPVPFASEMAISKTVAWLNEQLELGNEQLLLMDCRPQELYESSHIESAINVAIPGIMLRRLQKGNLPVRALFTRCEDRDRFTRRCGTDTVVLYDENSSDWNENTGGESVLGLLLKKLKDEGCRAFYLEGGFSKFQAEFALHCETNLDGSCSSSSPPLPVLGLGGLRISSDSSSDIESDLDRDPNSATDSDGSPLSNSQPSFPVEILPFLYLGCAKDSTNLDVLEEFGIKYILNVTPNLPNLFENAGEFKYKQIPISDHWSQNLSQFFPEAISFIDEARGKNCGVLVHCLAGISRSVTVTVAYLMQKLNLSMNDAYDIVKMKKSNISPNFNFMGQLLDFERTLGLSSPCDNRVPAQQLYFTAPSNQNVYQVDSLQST

[15] = molecular target: T4, Dual specificity protein phosphatase 6; format: functional
[16] = NIH-3T3 fibroblast cytotoxicity, dose response, cytotoxicity control, cell-based, fluorescence, Alamar Blue, secondary assay (AID 2327); format: functional;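 also: NIH-3T3 mouse fibroblasts cultured with fluconazole at 8 µg/mL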
[17] = molecular target: T5, Serine/threonine-protein phosphatase (Candida dubliniensis (strain CD36 / CBS 7987 / NCPF 3949 / NRRLY-17841) (Yeast), UniProt B9W6M3); assay: blockers of CaCl2-induced CDRE-lacZ signaling – S. cerevisiae, luminescence, secondary, dose response (AID 2388); format: functional, cell-based;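 also: yeast reporter cells carrying a calcineurin-responsive lacZ construct stimulated with calcium chloride; luminescent beta-galactosidase reporter signal in whole cells rather than isolated phosphatase activity; potency for inhibition where a drop in reporter signal means calcineurin blockade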
T5 sequence (B9W6M3 whole entry): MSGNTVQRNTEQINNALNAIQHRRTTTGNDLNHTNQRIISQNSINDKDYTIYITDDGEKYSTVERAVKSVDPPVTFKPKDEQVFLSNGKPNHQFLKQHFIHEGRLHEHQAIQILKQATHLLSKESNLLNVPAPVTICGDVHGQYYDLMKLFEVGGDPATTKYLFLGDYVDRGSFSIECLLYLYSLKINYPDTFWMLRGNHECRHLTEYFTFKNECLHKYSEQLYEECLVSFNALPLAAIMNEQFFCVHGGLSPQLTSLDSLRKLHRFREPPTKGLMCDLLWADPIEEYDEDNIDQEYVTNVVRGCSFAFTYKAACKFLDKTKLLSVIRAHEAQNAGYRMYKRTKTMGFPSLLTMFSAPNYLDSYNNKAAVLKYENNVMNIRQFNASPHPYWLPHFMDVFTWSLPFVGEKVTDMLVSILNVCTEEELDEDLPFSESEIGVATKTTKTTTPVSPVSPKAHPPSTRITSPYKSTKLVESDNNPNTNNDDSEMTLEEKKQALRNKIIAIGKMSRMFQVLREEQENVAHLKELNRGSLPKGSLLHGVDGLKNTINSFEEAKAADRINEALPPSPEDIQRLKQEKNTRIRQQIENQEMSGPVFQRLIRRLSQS

[18] = fluconazole-exposed Candida albicans growth modulators – fluorescence, retest, confirmation (AID 2467); format: functional, cell-based
[19] = molecular target: ATP-dependent molecular chaperone HSP82 (Candida albicans (strain WO-1) (Yeast), UniProt C4YTQ8); assay: steroid-induced GRE reporter decrease in yeast – S. cerevisiae, luminescence, Hsp90 inhibitor project, dose response (AID 2400); format: functional, cell-based;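 also: beta-galactosidase luminescence from glucocorticoid response element reporter as proxy for Hsp90 function; inhibitor potency where signal loss means Hsp90 inhibition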
Chain of ATP-dependent molecular chaperone HSP82 (C4YTQ8 whole entry): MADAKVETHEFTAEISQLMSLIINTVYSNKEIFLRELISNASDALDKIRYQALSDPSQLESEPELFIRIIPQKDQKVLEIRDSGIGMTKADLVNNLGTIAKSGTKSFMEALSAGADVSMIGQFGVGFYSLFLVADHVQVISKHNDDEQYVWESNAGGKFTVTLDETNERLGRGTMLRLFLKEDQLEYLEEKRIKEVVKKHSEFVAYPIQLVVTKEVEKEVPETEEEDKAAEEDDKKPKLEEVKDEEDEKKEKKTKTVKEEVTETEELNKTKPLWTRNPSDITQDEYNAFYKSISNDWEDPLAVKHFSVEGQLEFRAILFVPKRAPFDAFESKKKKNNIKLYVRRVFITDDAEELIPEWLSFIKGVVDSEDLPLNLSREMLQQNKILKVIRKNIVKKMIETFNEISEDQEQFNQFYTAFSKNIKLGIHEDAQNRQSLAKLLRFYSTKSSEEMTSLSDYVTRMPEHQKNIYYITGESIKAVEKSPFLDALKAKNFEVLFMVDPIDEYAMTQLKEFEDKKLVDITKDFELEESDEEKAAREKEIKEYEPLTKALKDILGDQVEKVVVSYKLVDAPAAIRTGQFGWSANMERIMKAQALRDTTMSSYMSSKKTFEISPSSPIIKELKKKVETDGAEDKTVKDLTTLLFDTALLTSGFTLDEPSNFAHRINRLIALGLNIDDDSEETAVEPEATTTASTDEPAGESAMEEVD

[20] = test system: Escherichia coli; assay: microbe, parasite or virus in culture; remark: listed apart in the source

Compound: CS(=O)(=O)c1ccc(C(=O)OCC(=O)NCc2cccs2)cc1[N+](=O)[O-]
AC50 [1]: 13.4 µM (active)
AC50 [2]: 2.07 µM (active)
AC50 [3]: 62.3 µM (active)
IC50 [4]: 4.83 µM (active)
AC50 [5]: 26 µM (active)
AC50 [6]: 14 µM (active)
AC50 [7]: 11.7 µM (active)

Compound: O=C(O)CCc1ccc(-c2cccs2)o1
IC50 [8]: 3.13 µM (active)
IC50 [9]: 21.3 µM (active)
AC50 [10]: > 380 µM (inactive)

AC50 [11]: 4.17 µM (active)
Compound: CC1(C(=O)c2ccccc2)C2c3c(ccc4ccccc34)OC(=O)C21C(=O)N1CCOCC1 (stereo unspecified)

IC50 [12]: > 100 µM (not active)
IC50 [13]: > 100 µM (not active)
IC50 [14]: > 100 µM (inactive)
IC50 [15]: > 100 µM (inactive)
Compound: CCn1c(=O)n(Cc2ccccc2C)c(=O)n([C@@H](Cc2ccccc2)C(=O)O)c1=O

Compound: C=CCN(CC=C)Cc1c(O)ccc2c(=O)c(-c3ccccc3)coc12
EC50 [16]: 131 µM (active)
EC50 [17]: > 180 µM (inactive)
EC50 [18]: < 0.03 µM (active)
EC50 [19]: > 150 µM (inactive)

Compound: O=C(CSCc1ccc(Cl)cc1)Nc1ccc(-c2nnc(-c3ccccc3)o2)cc1
AC50 [20]: 23.9 µM (active)
AC50 [10]: 58.8 µM (active)
